pIC50: −log10 of the molar value.
Legend:
MCF-7 cells = experiment: Cell Growth Inhibition, MCF-7 (CellTiterGlo, 6 days); type: cell-based; details: Homo sapiens, MCF7, 144 h, MCF-7, 6-day treatment
Method in brief: (§1)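 IC50 from four-parameter, variable-slope fits of % growth inhibition, derived from CellTiterGlo 2.0 luminescence relative to control. Compounds, usually 10-10,000 nM in half-log steps, stayed 6 days at 37 °C, 5% CO2 with 500 MCF-7 or OVCAR-3 cells/well in 10% FBS RPMI.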

CDK2/Cyclin E1 = CDK2/Cyclin E1 (Homo sapiens (Human), UniProt P24941); experiment: CDK2/Cyclin E1 Full length ADP-Glo Kinase Assay; type: biochemical; details: 20 uM ATP, read-out: CDK2/ CyclinE1 IC50
Method in brief: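 ADP-Glo luminescence (ATP depletion, then ADP-to-light conversion) quantified kinase turnover after a 90 min room-temperature reaction started by ATP/substrate, following 30 min enzyme–inhibitor preincubation. Enzyme: full-length CDK2/cyclin E1; IC50 fitted with a four-parameter equation on fractional velocity.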

CDK4/Cyclin D1 = CDK4/Cyclin D1 (Homo sapiens (Human), UniProt P11802); experiment: CDK4/Cyclin D1 CHEF Assay (AQT0258 peptide); type: biochemical; details: 200 uM ATP, read-out: CDK4/ CyclinD1 AQT IC50
Chain of CDK4/Cyclin D1 (P11802 whole entry): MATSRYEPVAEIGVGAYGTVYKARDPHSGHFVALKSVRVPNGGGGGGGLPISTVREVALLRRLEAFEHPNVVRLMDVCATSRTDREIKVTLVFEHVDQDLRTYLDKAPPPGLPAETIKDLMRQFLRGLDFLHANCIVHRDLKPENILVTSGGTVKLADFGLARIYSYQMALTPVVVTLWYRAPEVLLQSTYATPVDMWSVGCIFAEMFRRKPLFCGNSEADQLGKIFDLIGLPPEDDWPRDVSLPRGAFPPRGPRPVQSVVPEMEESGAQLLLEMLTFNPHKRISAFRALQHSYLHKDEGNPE
Chain of CDK4/Cyclin D1 (P24385 whole entry partner): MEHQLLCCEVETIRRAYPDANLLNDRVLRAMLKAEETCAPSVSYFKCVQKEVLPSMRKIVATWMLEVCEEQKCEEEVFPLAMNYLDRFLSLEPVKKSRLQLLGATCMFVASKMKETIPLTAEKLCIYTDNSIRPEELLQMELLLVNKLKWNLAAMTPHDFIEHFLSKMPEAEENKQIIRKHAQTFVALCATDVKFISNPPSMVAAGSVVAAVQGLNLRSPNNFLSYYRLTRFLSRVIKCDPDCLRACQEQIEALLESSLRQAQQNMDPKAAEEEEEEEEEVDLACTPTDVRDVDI
Method in brief: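 Sox-labelled peptide AQT0258 phosphorylation read as chelation-enhanced fluorescence (ex 360/em 485 nm) with Mg(II). Enzyme preincubated with inhibitor 30 min at 22°C, substrate added, 3 h at 22°C; IC50 from four-parameter fit of fractional velocity versus inhibitor concentration.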

CDK6/Cyclin D3 = CDK6/Cyclin D3 (Homo sapiens (Human), UniProt Q00534); experiment: CDK6/Cyclin D3 ADP-Glo Kinase Assay; type: biochemical; details: 100 uM ATP, read-out: CDK6/ CyclinD3 IC50
Chain of CDK6/Cyclin D3 (Q00534 whole entry): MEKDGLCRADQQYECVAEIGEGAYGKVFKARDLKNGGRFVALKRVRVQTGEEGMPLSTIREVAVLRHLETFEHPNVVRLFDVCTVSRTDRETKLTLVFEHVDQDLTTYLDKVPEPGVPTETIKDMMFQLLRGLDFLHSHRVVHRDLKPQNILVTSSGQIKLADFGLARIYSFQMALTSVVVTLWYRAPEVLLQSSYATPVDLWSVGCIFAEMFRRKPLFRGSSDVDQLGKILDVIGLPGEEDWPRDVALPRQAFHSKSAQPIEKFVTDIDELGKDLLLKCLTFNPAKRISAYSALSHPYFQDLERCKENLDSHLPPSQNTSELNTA
Chain of CDK6/Cyclin D3 (P30281 whole entry partner): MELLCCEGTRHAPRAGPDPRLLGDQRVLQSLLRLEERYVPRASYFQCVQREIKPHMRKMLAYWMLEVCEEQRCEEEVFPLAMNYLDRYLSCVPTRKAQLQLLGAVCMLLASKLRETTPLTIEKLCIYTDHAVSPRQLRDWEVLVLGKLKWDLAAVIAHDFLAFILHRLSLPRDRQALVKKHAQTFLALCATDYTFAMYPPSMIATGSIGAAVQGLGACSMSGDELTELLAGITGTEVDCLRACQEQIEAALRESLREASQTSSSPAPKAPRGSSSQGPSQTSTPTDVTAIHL
Method in brief: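 ADP-Glo luminescence measured ADP produced by CDK6/Cyclin D3 in a 90-min room-temperature reaction started with ATP-containing substrate, after 30-min enzyme–inhibitor pre-incubation. Fractional velocity was plotted against inhibitor concentration and fitted to a four-parameter IC50 model.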

CDK1/Cyclin B1 = CDK1/Cyclin B1 (Homo sapiens (Human), UniProt P06493); experiment: CDK1/Cyclin B1 ADP-Glo Kinase Assay; type: biochemical; details: ADP-Glo, 80 uM ATP; read-out: CDK1 Cyclin B1 IC50
Chain of CDK1/Cyclin B1 (P06493 whole entry): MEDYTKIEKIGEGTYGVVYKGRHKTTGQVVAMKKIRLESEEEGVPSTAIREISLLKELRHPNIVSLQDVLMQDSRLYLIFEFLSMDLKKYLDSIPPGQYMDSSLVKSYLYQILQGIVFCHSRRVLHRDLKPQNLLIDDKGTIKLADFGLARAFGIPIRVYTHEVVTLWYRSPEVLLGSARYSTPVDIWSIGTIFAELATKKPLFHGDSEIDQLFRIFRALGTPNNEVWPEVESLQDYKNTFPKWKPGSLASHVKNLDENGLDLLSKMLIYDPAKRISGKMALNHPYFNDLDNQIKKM
Chain of CDK1/Cyclin B1 (P14635 whole entry partner): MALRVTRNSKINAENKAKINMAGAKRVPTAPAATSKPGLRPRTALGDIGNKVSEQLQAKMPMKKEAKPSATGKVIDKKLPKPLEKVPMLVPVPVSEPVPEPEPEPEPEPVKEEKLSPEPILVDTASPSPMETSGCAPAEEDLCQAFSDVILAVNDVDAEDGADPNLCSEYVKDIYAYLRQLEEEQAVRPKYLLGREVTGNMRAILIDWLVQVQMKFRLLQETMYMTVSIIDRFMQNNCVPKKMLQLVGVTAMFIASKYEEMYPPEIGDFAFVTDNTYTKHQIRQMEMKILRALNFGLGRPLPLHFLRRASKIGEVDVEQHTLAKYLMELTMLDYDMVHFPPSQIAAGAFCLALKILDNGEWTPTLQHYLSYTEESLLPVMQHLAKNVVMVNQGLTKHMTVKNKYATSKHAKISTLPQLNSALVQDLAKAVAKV
Method in brief: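 ADP-Glo luminescent readout of ADP production, with IC50 fitted by a four-parameter equation to fractional velocity against inhibitor concentration. Reaction started with ATP-containing substrate after a 30-minute enzyme–inhibitor pre-incubation and stopped after 90 minutes, both at room temperature.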

OVCAR-3 cells = experiment: Cell Growth Inhibition, OVCAR-3 (CellTiterGlo, 6 days); type: cell-based; details: Homo sapiens, 144 h, OVCAR-3, 6-day treatment
Method in brief: as §1

SMILES | pIC50 (MCF-7 cells) | pIC50 (CDK2/Cyclin E1) | pIC50 (CDK4/Cyclin D1) | pIC50 (CDK6/Cyclin D3) | pIC50 (CDK1/Cyclin B1) | pIC50 (OVCAR-3 cells)
CS(=O)(=O)N1CCC(Nc2ncc3cc(C(F)F)nc(N4CC5(CNCCC5(F)F)C4)c3n2)CC1 [Compound 65, 8-(9,9-difluoro-2,6-diazaspiro[3.5]nonan-2-yl)-6-(difluoromethyl)-N-(1-(methylsulfonyl)piperidin-4-yl)pyrido[3,4-d]pyrimidin-2-amine] | 6.30 to 6.70 | > 6.70 | > 6.70 | > 6.70 | > 6.70 | 6.30 to 6.70
Cc1cc2cnc(NC3CCN(S(=O)(=O)C4CC4)CC3)nc2c(N2CC3(CC(O)C3)C2)n1 [Compound 66, 2-(2-((1-(cyclopropylsulfonyl)piperidin-4-yl)amino)-6-methylpyrido[3,4-d]pyrimidin-8-yl)-2-azaspiro[3.3]heptan-6-ol] | 5.70 to 6.30 | > 6.70 | > 6.70 | > 6.70 | 5.70 to 6.30 | 5.70 to 6.30
Cc1cc2cnc(NC3CCN(S(=O)(=O)CCC4(C)CC4)CC3)nc2c(N2CC(F)(F)C3(CNC3)C2)n1 [Compound 67, 8-(8,8-difluoro-2,6-diazaspiro[3.4]octan-6-yl)-6-methyl-N-(1-((2-(1-methylcyclopropyl)ethyl)sulfonyl)piperidin-4-yl)pyrido[3,4-d]pyrimidin-2-amine] | < 5.70 | > 6.70 | > 6.70 | 6.30 to 6.70 | 6.30 to 6.70 | < 5.70
CS(=O)(=O)N1CCC(Nc2ncc3cc(C4CC4)nc(C4CC5(CNCCO5)C4)c3n2)CC1 (stereo not drawn) [Compound 70, 6-cyclopropyl-N-(1-(methylsulfonyl)piperidin-4-yl)-8-(5-oxa-8-azaspiro[3.5]nonan-2-yl)pyrido[3,4-d]pyrimidin-2-amine] | 5.70 to 6.30 | > 6.70 | > 6.70 | > 6.70 | > 6.70 | 5.70 to 6.30
COC1CC2(C1)CN(c1nc(C)cc3cnc(NC4CCN(S(=O)(=O)C5CC5)CC4)nc13)C2 [Compound 71, N-(1-(cyclopropylsulfonyl)piperidin-4-yl)-8-(6-methoxy-2-azaspiro[3.3]heptan-2-yl)-6-methylpyrido[3,4-d]pyrimidin-2-amine] | < 5.70 | > 6.70 | > 6.70 | > 6.70 | 6.30 to 6.70 | < 5.70
Cc1cc2cnc(NC3CCN(S(=O)(=O)C4CC4)CC3)nc2c(N2CC(N3CC(F)C3)C2)n1 [Compound 72, N-(1-(cyclopropylsulfonyl)piperidin-4-yl)-8-(3-fluoro-[1,3′-biazetidin]-l′-yl)-6-methylpyrido[3,4-d]pyrimidin-2-amine] | < 5.70 | > 6.70 | 6.30 to 6.70 | 6.30 to 6.70 | 5.70 to 6.30 | < 5.70
Cc1cc2cnc(NC3CCN(S(C)(=O)=O)CC3)nc2c(N2CC3(CC(O)C3)C2)n1 [Compound 73, 2-(6-methyl-2-((1-(methylsulfonyl)piperidin-4-yl)amino)pyrido[3,4-d]pyrimidin-8-yl)-2-azaspiro[3.3]heptan-6-ol] | < 5.70 | > 6.70 | > 6.70 | 6.30 to 6.70 | 5.70 to 6.30 | < 5.70
Cc1cc2cnc(NC3CCN(S(=O)(=O)C4CC4)CC3)nc2c(N2CC(CS(C)(=O)=O)C2)n1 [Compound 74, N-(1-(cyclopropylsulfonyl)piperidin-4-yl)-6-methyl-8-(3-((methylsulfonyl)methyl)azetidin-1-yl)pyrido[3,4-d]pyrimidin-2-amine] | < 5.70 | > 6.70 | 6.30 to 6.70 | 6.30 to 6.70 | 5.70 to 6.30 | < 5.70
COC1CC2(C1)CN(c1nc(C3CC3)cc3cnc(NC4CCN(S(C)(=O)=O)CC4)nc13)C2 [Compound 75, 6-cyclopropyl-8-(6-methoxy-2-azaspiro[3.3]heptan-2-yl)-N-(1-(methylsulfonyl)piperidin-4-yl)pyrido[3,4-d]pyrimidin-2-amine] | < 5.70 | > 6.70 | > 6.70 | > 6.70 | < 5.70 | < 5.70
COC1CC2(C1)CN(c1nc(C)cc3cnc(NC4CCN(S(C)(=O)=O)CC4)nc13)C2 [Compound 76, 8-(6-methoxy-2-azaspiro[3.3]heptan-2-yl)-6-methyl-N-(1-(methylsulfonyl)piperidin-4-yl)pyrido[3,4-d]pyrimidin-2-amine] | 5.70 to 6.30 | > 6.70 | > 6.70 | > 6.70 | 6.30 to 6.70 | < 5.70

The next lines start with the values.

pIC50 (MCF-7 cells) | pIC50 (CDK2/Cyclin E1) | pIC50 (CDK4/Cyclin D1) | pIC50 (CDK6/Cyclin D3) | pIC50 (CDK1/Cyclin B1) | pIC50 (OVCAR-3 cells) | SMILES
< 5.70 | > 6.70 | > 6.70 | > 6.70 | 6.30 to 6.70 | < 5.70 | Cc1cc2cnc(NC3CCN(S(C)(=O)=O)CC3)nc2c(N2CC3(CCC(=O)N3)C2)n1 [Compound 77, 2-(6-methyl-2-((1-(methylsulfonyl)piperidin-4-yl)amino)pyrido[3,4-d]pyrimidin-8-yl)-2,5-diazaspiro[3.4]octan-6-one]
5.70 to 6.30 | > 6.70 | > 6.70 | 6.30 to 6.70 | 6.30 to 6.70 | 5.70 to 6.30 | Cc1cc2cnc(NC3CCN(S(=O)(=O)C4CC4)CC3)nc2c(N2CC3(C2)CC(C)(O)C3)n1 [Compound 78, 2-(2-((1-(cyclopropylsulfonyl)piperidin-4-yl)amino)-6-methylpyrido[3,4-d]pyrimidin-8-yl)-6-methyl-2-azaspiro[3.3]heptan-6-ol]
< 5.70 | > 6.70 | > 6.70 | 6.30 to 6.70 | 6.30 to 6.70 | 5.70 to 6.30 | Cc1cc2cnc(NC3CCN(S(C)(=O)=O)CC3)nc2c(N2CC3(C2)CC(C)(O)C3)n1 [Compound 79, 6-methyl-2-(6-methyl-2-((1-(methylsulfonyl)piperidin-4-yl)amino)pyrido[3,4-d]pyrimidin-8-yl)-2-azaspiro[3.3]heptan-6-ol]
< 5.70 | > 6.70 | > 6.70 | > 6.70 | 5.70 to 6.30 | < 5.70 | COCCN1CC2(CC(c3nc(C4CC4)cc4cnc(NC5CCN(S(=O)(=O)CC6CCC6)CC5)nc34)C2)C1 [Compound 80, N-(1-((cyclobutylmethyl)sulfonyl)piperidin-4-yl)-6-cyclopropyl-8-(2-(2-methoxyethyl)-2-azaspiro[3.3]heptan-6-yl)pyrido[3,4-d]pyrimidin-2-amine]
< 5.70 | > 6.70 | > 6.70 | > 6.70 | 6.30 to 6.70 | < 5.70 | Cc1cc2cnc(Nc3ccc(CS(C)(=O)=O)cc3)nc2c(N2CC(O)(C3CC3)C2)n1 [Compound 83, 3-cyclopropyl-1-(6-methyl-2-((4-((methylsulfonyl)methyl)phenyl)amino)pyrido[3,4-d]pyrimidin-8-yl)azetidin-3-ol]
5.70 to 6.30 | > 6.70 | > 6.70 | > 6.70 | 6.30 to 6.70 | 5.70 to 6.30 | Cc1cc2cnc(NC3CCN(S(C)(=O)=O)CC3)nc2c(C2CC3(C2)CN(C)CCO3)n1 (stereo not drawn) [Compound 84, 6-methyl-8-(8-methyl-5-oxa-8-azaspiro[3.5]nonan-2-yl)-N-(1-(methylsulfonyl)piperidin-4-yl)pyrido[3,4-d]pyrimidin-2-amine]

Reference: patent US20240034731A1, “AZA-QUINAZOLINE COMPOUNDS AND METHODS OF USE” (Iambic Therapeutics, Inc., priority 2022, published 2024)
